Laboratory results: patent US10405547B2, “Substituted cyclic amides as herbicides” (FMC Corporation, priority 2015, dated 2019)

Assays:
Type in all cases: in vivo
[1] = system: wheat (Triticum aestivum); assay: Test A postemergence, wheat; conditions: visual injury, 0 to 100 scale (0 no effect, 100 complete control), approximately 10 days
Summary of the method: (§1)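 Greenhouse test: compounds in solvent with surfactant sprayed onto loam–sand soil after planting (preemergence) or onto plants 2-10 cm at the one- to two-leaf stage (postemergence). Injury visually rated versus untreated controls after about 10 days on a 0-100 scale (100 = complete control).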

[2] = system: blackgrass (Alopecurus myosuroides); assay: Test A postemergence, blackgrass; conditions: visual injury, 0 to 100 scale (0 no effect, 100 complete control), approximately 10 days
Summary of the method: as §1

corn (Zea mays) = assay: Test A postemergence, corn; conditions: visual injury, 0 to 100 scale (0 no effect, 100 complete control), approximately 10 days
Summary of the method: as §1

[3] = system: foxtail, giant (Setaria faberii); assay: Test A preemergence, giant foxtail; conditions: 0 to 100 scale (0 no effect, 100 complete control)
Summary of the method: as §1

[4] = system: ryegrass, Italian (Lolium multiflorum); assay: Test A postemergence, Italian ryegrass; conditions: visual injury, 0 to 100 scale (0 no effect, 100 complete control), approximately 10 days
Summary of the method: as §1

[5] = system: ryegrass, Italian (Lolium multiflorum); assay: Test A preemergence, Italian ryegrass; conditions: 0 to 100 scale (0 no effect, 100 complete control)
Summary of the method: as §1

[6] = system: sedge, umbrella (small-flower umbrella sedge, Cyperus difformis); assay: Test B flooded paddy test, umbrella sedge; conditions: applied to paddy water, visual rating after 13 to 15 days, scale 0 (no effect) to 100 (complete control)
Summary of the method: (§2)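 Visual injury ratings against untreated controls, taken 13 to 15 days after compound was added to paddy water standing 3 cm above the soil.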

[7] = system: barnyardgrass (Echinochloa crus-galli); assay: Test A postemergence, barnyardgrass; conditions: visual injury, 0 to 100 scale (0 no effect, 100 complete control), approximately 10 days
Summary of the method: as §1

[8] = system: ragweed (common ragweed, Ambrosia elatior); assay: Test A postemergence, ragweed; conditions: visual injury, 0 to 100 scale (0 no effect, 100 complete control), approximately 10 days
Summary of the method: as §1

[9] = system: pigweed (Amaranthus retroflexus); assay: Test A postemergence, pigweed; conditions: visual injury, 0 to 100 scale (0 no effect, 100 complete control), approximately 10 days
Summary of the method: as §1

[10] = system: foxtail, giant (Setaria faberii); assay: Test A postemergence, giant foxtail; conditions: visual injury, 0 to 100 scale (0 no effect, 100 complete control), approximately 10 days
Summary of the method: as §1

[11] = system: ragweed (common ragweed, Ambrosia elatior); assay: Test A preemergence, ragweed; conditions: 0 to 100 scale (0 no effect, 100 complete control)
Summary of the method: as §1

[12] = system: barnyardgrass (Echinochloa crus-galli); assay: Test A preemergence, barnyardgrass; conditions: 0 to 100 scale (0 no effect, 100 complete control)
Summary of the method: as §1

kochia (Kochia scoparia) [13] = assay: Test A postemergence, kochia; conditions: visual injury, 0 to 100 scale (0 no effect, 100 complete control), approximately 10 days
Summary of the method: as §1

[14] = system: galium (catchweed bedstraw, Galium aparine); assay: Test A postemergence, galium; conditions: visual injury, 0 to 100 scale (0 no effect, 100 complete control), approximately 10 days
Summary of the method: as §1

[15] = system: ducksalad (Heteranthera limosa); assay: Test B flooded paddy test, ducksalad; conditions: applied to paddy water, visual rating after 13 to 15 days, scale 0 (no effect) to 100 (complete control)
Summary of the method: as §2

[16] = system: pigweed (Amaranthus retroflexus); assay: Test A preemergence, pigweed; conditions: 0 to 100 scale (0 no effect, 100 complete control)
Summary of the method: as §1

kochia (Kochia scoparia) [17] = assay: Test A preemergence, kochia; conditions: 0 to 100 scale (0 no effect, 100 complete control)
Summary of the method: as §1

rice (Oryza sativa) = assay: Test B flooded paddy test, rice; conditions: applied to paddy water, visual rating after 13 to 15 days, scale 0 (no effect) to 100 (complete control)
Summary of the method: as §2

[18] = system: barnyardgrass (Echinochloa crus-galli); assay: Test B flooded paddy test, barnyardgrass; conditions: applied to paddy water, visual rating after 13 to 15 days, scale 0 (no effect) to 100 (complete control)
Summary of the method: as §2

Row | Compound | Plant response rating, Wheat ([1]; 125 g ai/ha) | Plant response rating, Wheat ([1]; 500 g ai/ha) | Plant response rating, Blackgrass ([2]; 125 g ai/ha) | Plant response rating, Blackgrass ([2]; 500 g ai/ha) | Plant response rating, Corn (corn (Zea mays); 125 g ai/ha) | Plant response rating, Corn (corn (Zea mays); 500 g ai/ha) | Plant response rating, Foxtail, Giant ([3]; 125 g ai/ha) | Plant response rating, Foxtail, Giant ([3]; 500 g ai/ha) | Plant response rating, Ryegrass, Italian ([4]; 125 g ai/ha) | Plant response rating, Ryegrass, Italian ([4]; 500 g ai/ha) | Plant response rating, Ryegrass, Italian ([5]; 125 g ai/ha) | Plant response rating, Ryegrass, Italian ([5]; 500 g ai/ha) | Plant response rating, Barnyardgrass ([7]; 125 g ai/ha) | Plant response rating, Barnyardgrass ([7]; 500 g ai/ha) | Plant response rating, Ragweed ([8]; 125 g ai/ha) | Plant response rating, Ragweed ([8]; 500 g ai/ha) | Plant response rating, Pigweed ([9]; 125 g ai/ha) | Plant response rating, Pigweed ([9]; 500 g ai/ha) | Plant response rating, Foxtail, Giant ([10]; 125 g ai/ha) | Plant response rating, Foxtail, Giant ([10]; 500 g ai/ha) | other results
1 | CN1CC(c2cccc(Oc3ncc(F)cn3)c2)C(C(=O)Nc2cccc(F)c2F)C1=O (single isomer, unassigned) [Compound 38] | 50 | 70 | 70 | 70 | 90 | 100 | 100 | 100 | 70 | 80 | 80 | 100 | 100 | 100 | 20 | 80 | 50 | 70 | 90 | 90 | Plant response rating, Sedge, Umbrella (Flood) ([6]; 250 g ai/ha): 0; Plant response rating, Ragweed ([11]; 125 g ai/ha): 40; Plant response rating, Ragweed ([11]; 500 g ai/ha): 80; Plant response rating, Barnyardgrass ([12]; 125 g ai/ha): 90; Plant response rating, Barnyardgrass ([12]; 500 g ai/ha): 100; Plant response rating, Kochia (kochia (Kochia scoparia) [13]; 125 g ai/ha): 30; Plant response rating, Kochia (kochia (Kochia scoparia) [13]; 500 g ai/ha): 60; Plant response rating, Galium ([14]; 125 g ai/ha): 50; Plant response rating, Galium ([14]; 500 g ai/ha): 70; Plant response rating, Ducksalad (Flood) ([15]; 250 g ai/ha): 80; Plant response rating, Pigweed ([16]; 125 g ai/ha): 80; Plant response rating, Pigweed ([16]; 500 g ai/ha): 100; Plant response rating, Kochia (kochia (Kochia scoparia) [17]; 125 g ai/ha): 30; Plant response rating, Kochia (kochia (Kochia scoparia) [17]; 500 g ai/ha): 70; Plant response rating, Rice (Flood) (rice (Oryza sativa); 250 g ai/ha): 0; Plant response rating, Barnyardgrass (Flood) ([18]; 250 g ai/ha): 60
2 | O=C1NCC(c2cccc(OCc3ccccc3)c2)C1C(=O)Nc1ccccc1Cl (stereo not drawn) [Compound 67] | 0 | 0 | 0 | 0 | 0 | 0 | 0 | 0 | 0 | 0 | 0 | 0 | 0 | 0 | 0 | 0 | 0 | 0 | 0 | 0 | Plant response rating, Sedge, Umbrella (Flood) ([6]; 500 g ai/ha): 0; Plant response rating, Ragweed ([11]; 125 g ai/ha): 0; Plant response rating, Ragweed ([11]; 500 g ai/ha): 0; Plant response rating, Barnyardgrass ([12]; 125 g ai/ha): 0; Plant response rating, Barnyardgrass ([12]; 500 g ai/ha): 0; Plant response rating, Kochia (kochia (Kochia scoparia) [13]; 125 g ai/ha): 0; Plant response rating, Kochia (kochia (Kochia scoparia) [13]; 500 g ai/ha): 0; Plant response rating, Galium ([14]; 125 g ai/ha): 0; Plant response rating, Galium ([14]; 500 g ai/ha): 0; Plant response rating, Ducksalad (Flood) ([15]; 500 g ai/ha): 0; Plant response rating, Pigweed ([16]; 125 g ai/ha): 0; Plant response rating, Pigweed ([16]; 500 g ai/ha): 0; Plant response rating, Kochia (kochia (Kochia scoparia) [17]; 125 g ai/ha): 0; Plant response rating, Kochia (kochia (Kochia scoparia) [17]; 500 g ai/ha): 0; Plant response rating, Rice (Flood) (rice (Oryza sativa); 500 g ai/ha): 0; Plant response rating, Barnyardgrass (Flood) ([18]; 500 g ai/ha): 0
3 | O=C1NCC(c2cccc(OCc3ccccc3)c2)C1C(=O)Nc1cccc(F)c1F (stereo not drawn) [Compound 65] | 0 | 0 | 0 | 0 | 0 | 0 | 0 | 0 | 0 | 0 | 0 | 0 | 0 | 0 | 0 | 0 | 0 | 0 | 0 | 0 | Plant response rating, Sedge, Umbrella (Flood) ([6]; 500 g ai/ha): 0; Plant response rating, Ragweed ([11]; 125 g ai/ha): 0; Plant response rating, Ragweed ([11]; 500 g ai/ha): 0; Plant response rating, Barnyardgrass ([12]; 125 g ai/ha): 0; Plant response rating, Barnyardgrass ([12]; 500 g ai/ha): 0; Plant response rating, Kochia (kochia (Kochia scoparia) [13]; 125 g ai/ha): 0; Plant response rating, Kochia (kochia (Kochia scoparia) [13]; 500 g ai/ha): 0; Plant response rating, Galium ([14]; 125 g ai/ha): 0; Plant response rating, Galium ([14]; 500 g ai/ha): 0; Plant response rating, Ducksalad (Flood) ([15]; 500 g ai/ha): 0; Plant response rating, Pigweed ([16]; 125 g ai/ha): 0; Plant response rating, Pigweed ([16]; 500 g ai/ha): 0; Plant response rating, Kochia (kochia (Kochia scoparia) [17]; 125 g ai/ha): 0; Plant response rating, Kochia (kochia (Kochia scoparia) [17]; 500 g ai/ha): 0; Plant response rating, Rice (Flood) (rice (Oryza sativa); 500 g ai/ha): 0; Plant response rating, Barnyardgrass (Flood) ([18]; 500 g ai/ha): 0
4 | O=C1NCC(c2cccc(OCC3OCCO3)c2)C1C(=O)Nc1cccc(F)c1F (stereo not drawn) [Compound 7] | 0 | 40 | 0 | 40 | 0 | 20 | 90 | 90 | 0 | 20 | 30 | 30 | 40 | 70 | 0 | 20 | 0 | 0 | 20 | 70 | Plant response rating, Sedge, Umbrella (Flood) ([6]; 250 g ai/ha): 0; Plant response rating, Ragweed ([11]; 125 g ai/ha): 0; Plant response rating, Ragweed ([11]; 500 g ai/ha): 0; Plant response rating, Barnyardgrass ([12]; 125 g ai/ha): 60; Plant response rating, Barnyardgrass ([12]; 500 g ai/ha): 90; Plant response rating, Kochia (kochia (Kochia scoparia) [13]; 125 g ai/ha): 0; Plant response rating, Kochia (kochia (Kochia scoparia) [13]; 500 g ai/ha): 0; Plant response rating, Galium ([14]; 125 g ai/ha): 20; Plant response rating, Galium ([14]; 500 g ai/ha): 40; Plant response rating, Ducksalad (Flood) ([15]; 250 g ai/ha): 75; Plant response rating, Pigweed ([16]; 125 g ai/ha): 60; Plant response rating, Pigweed ([16]; 500 g ai/ha): 60; Plant response rating, Kochia (kochia (Kochia scoparia) [17]; 125 g ai/ha): 0; Plant response rating, Kochia (kochia (Kochia scoparia) [17]; 500 g ai/ha): 0; Plant response rating, Rice (Flood) (rice (Oryza sativa); 250 g ai/ha): 0; Plant response rating, Barnyardgrass (Flood) ([18]; 250 g ai/ha): 0
5 | CN1CC(c2cccc(Oc3ccc(C(F)(F)F)cn3)c2)C(C(=O)Nc2ccccc2F)C1=O (single isomer, unassigned) [Compound 43] | 30 | 50 | 30 | 50 | 40 | 80 | 90 | 90 | 0 | 30 | 30 | 80 | 90 | 90 | 0 | 0 | 30 | 50 | 80 | 80 | Plant response rating, Sedge, Umbrella (Flood) ([6]; 250 g ai/ha): 0; Plant response rating, Ragweed ([11]; 125 g ai/ha): 0; Plant response rating, Ragweed ([11]; 500 g ai/ha): 80; Plant response rating, Barnyardgrass ([12]; 125 g ai/ha): 80; Plant response rating, Barnyardgrass ([12]; 500 g ai/ha): 80; Plant response rating, Kochia (kochia (Kochia scoparia) [13]; 125 g ai/ha): 40; Plant response rating, Kochia (kochia (Kochia scoparia) [13]; 500 g ai/ha): 60; Plant response rating, Galium ([14]; 125 g ai/ha): 70; Plant response rating, Galium ([14]; 500 g ai/ha): 80; Plant response rating, Ducksalad (Flood) ([15]; 250 g ai/ha): 98; Plant response rating, Pigweed ([16]; 125 g ai/ha): 40; Plant response rating, Pigweed ([16]; 500 g ai/ha): 80; Plant response rating, Kochia (kochia (Kochia scoparia) [17]; 125 g ai/ha): 30; Plant response rating, Kochia (kochia (Kochia scoparia) [17]; 500 g ai/ha): 30; Plant response rating, Rice (Flood) (rice (Oryza sativa); 250 g ai/ha): 15; Plant response rating, Barnyardgrass (Flood) ([18]; 250 g ai/ha): 50
